Measurements from publication PMC4650734, “FV-162 is a novel, orally bioavailable, irreversible proteasome inhibitor with improved pharmacokinetics displaying preclinical efficacy with continuous daily dosing” (Cell Death & Disease, 2015).

Key:
[1] = tested on: patients with multiple myeloma; settings: infusion over 30 min; cited from earlier work
[2] = Metabolic stability assay with pooled mouse liver microsomes; format: in vitro ADME; settings: 5 μM compound, 15 min, 0.5 mg/ml pooled mouse liver microsomes, LC/MS
Procedure: Pooled liver microsomes isolated from male CD-1 mice were purchased from BD Biosciences (San Jose, CA, USA). Metabolic stability was calculated by measuring the percentage of 5 μM of each test compound remaining after 15 min incubation with 0.5 mg/ml liver microsomes at 37 °C. Compounds were detected by LC/MS using a Xevo quadrupole time-of-flight mass spectrometer and an ACQUITY ultra-performance LC (UPLC) system (Waters Inc., Milford, MA, USA) to determine relative peak areas of each parent compound.

rats = settings: cited from earlier work
CT-L proteasome activity = CT-L proteasome activity in RBCs of treated mice; format: in vivo, mouse; settings: by 24 h after treatment, murine RBCs, data not shown
Procedure: Cells were harvested by centrifugation at 1200 r.p.m. at room temperature. Cell pellets were washed with PBS and lysed with assay lysis buffer (50 mM HEPES (2-[4-(2-hydroxyethyl) piperazin-1-yl]ethanesulfonic acid)), pH 7.5; 150 mM NaCl; 1% Triton X-100; 2 mM ATP). Cell lysates were incubated on ice for 30 min, mixed by vortex every 5 min, and centrifuged at 12 000 × g for 10 min. Supernatants were transferred to a 96-well plate in triplicate. For each assay, 10 μg of total protein were incubated for 1 h at 37 °C with increasing concentrations (0.001–10 μM) of test compound or vehicle control diluted in assay buffer (50 mM Tris-HCl (tris(hydroxymethyl)aminomethane-HCl), pH 7.5; 150 mM NaCl). After incubation, a specific fluorogenic proteasome substrate was added to each assay reaction (40 μM in a total volume of 100 μl). N-Succinyl-Leu-Leu-Val-Tyr-7-amino-4-methylcoumarin (Suc-Leu-Leu-Val-Tyr-AMC) was used for measuring CT-L activity, t-butoxycarbonyl- Leu-Arg-Arg-7-amino-4-methylcoumarin (Boc-Leu-Arg-Arg-AMC) for T-L activity, and benzyloxycarbonyl-L-leucyl-L-leucyl-L-glutamyl-7-amino-4-methylcoumarin (Z-Leu-Leu-Glu-AMC) for C-L activity. The excitation wavelength was 360 nm and the fluorescence emission of free AMC released during the enzymatic reaction was detected at 460 nm on a SpectraMax M5 fluorescent spectrophotometric plate reader (Molecular Devices, Sunnyvale, CA, USA). AMC release rate was measured at 37 °C in a kinetic mode, recording every 5 min for 30 min.
Five-to-six-week-old male NOD/SCID mice were administered vehicle (5% DMSO, 20% Cremophor) or proteasome inhibitors either intravenously or by oral gavage (3 mice per group), and 20–50 μl of venous blood were collected from each mouse over 24 h. Blood samples were mixed with heparin (APP Pharmaceuticals; Schaumburg, IL, USA) in 0.5-ml tubes in accordance with the manufacturer's instructions. After centrifugal separation at 3000 × g for 10 min, RBCs in the bottom layer were transferred into a new tube and stored at −70 °C until use. RBCs were lysed with assay lysis buffer and incubated on ice for 30 min, mixing by vortex every 5 min, and centrifuged at 12 000 × g for 10 min. Supernatants were transferred to a 96-well plate and proteasome activity was measured as described in 'Cell lysates' section.

SMILES | dose tolerated without adverse effects [1] | percentage of parent compound remaining [2] [%] | rats for which dose was lethal (rats; 8 mg/kg, bolus infusion, rats) [%] | toxicity of 30 min infusion (rats; rat, in vivo) | proteasome activity recovered, of baseline levels (CT-L proteasome activity) [%]
CC(C)C[C@H](NC(=O)[C@H](CCc1ccccc1)NC(=O)CN1CCOCC1)C(=O)N[C@@H](Cc1ccccc1)C(=O)N[C@@H](CC(C)C)C(=O)[C@@]1(C)CO1 [carfilzomib] | up to 56 mg/m^2 | 70 | 44 | not toxic | 
CC(C)C[C@H](NC(=O)[C@H](Cc1ccccc1)NC(=O)c1cnccn1)B(O)O [bortezomib, reference compound] |  |  |  |  | > 50
